Data reported in the NIST ThermoML archive (doi:10.1016/j.jct.2014.05.020).

Test: excess molar enthalpy (molar enthalpy of mixing); xn = mol fraction of the nth substance listed
Conditions: Liquid, Flow calorimetry

C1CCCCC1 [cyclohexane] + c1ccccc1
excess molar enthalpy [kcal/mol]
Conditions	298.2 K	348.2 K	423.2 K
100 kPa, x2 = 0.1191	0.0766	–	–
100 kPa, x2 = 0.2332	0.132	–	–
100 kPa, x2 = 0.2885	0.152	–	–
100 kPa, x2 = 0.3426	0.167	–	–
100 kPa, x2 = 0.3957	0.179	–	–
100 kPa, x2 = 0.4478	0.186	–	–
100 kPa, x2 = 0.4988	0.189	–	–
100 kPa, x2 = 0.5488	0.188	–	–
100 kPa, x2 = 0.5978	0.184	–	–
100 kPa, x2 = 0.6459	0.176	–	–
100 kPa, x2 = 0.6931	0.165	–	–
100 kPa, x2 = 0.7394	0.15	–	–
100 kPa, x2 = 0.7849	0.133	–	–
100 kPa, x2 = 0.8295	0.112	–	–
100 kPa, x2 = 0.9163	0.063	–	–
5000 kPa, x2 = 0.1189	0.076	0.0637	0.0511
5000 kPa, x2 = 0.1765	0.106	–	0.072
5000 kPa, x2 = 0.233	0.132	0.11	0.0886
5000 kPa, x2 = 0.2882	0.152	–	–
5000 kPa, x2 = 0.3424	0.167	0.141	0.113
5000 kPa, x2 = 0.3955	0.178	–	–
5000 kPa, x2 = 0.4475	0.184	0.156	0.126
5000 kPa, x2 = 0.4985	0.188	–	–
5000 kPa, x2 = 0.5485	0.187	0.159	0.128
5000 kPa, x2 = 0.5976	0.182	–	–
5000 kPa, x2 = 0.6457	0.174	0.148	0.12
5000 kPa, x2 = 0.6929	0.166	–	–
5000 kPa, x2 = 0.7392	0.151	0.126	0.103
5000 kPa, x2 = 0.7847	0.133	–	–
5000 kPa, x2 = 0.8293	0.113	0.0938	0.0766
5000 kPa, x2 = 0.8732	0.0885	–	0.0603
5000 kPa, x2 = 0.9162	0.0614	0.0514	0.0425
5000 kPa, x2 = 0.9585	–	0.0264	0.0221
15000 kPa, x2 = 0.1188	0.0714	0.0601	0.0502
15000 kPa, x2 = 0.1763	–	–	0.0712
15000 kPa, x2 = 0.2327	0.129	0.109	0.0873
15000 kPa, x2 = 0.2879	0.15	–	–
15000 kPa, x2 = 0.3421	0.166	0.14	0.111
15000 kPa, x2 = 0.3951	0.178	–	–
15000 kPa, x2 = 0.4471	0.185	0.156	0.124
15000 kPa, x2 = 0.4981	0.188	–	–
15000 kPa, x2 = 0.5482	0.188	0.158	0.125
15000 kPa, x2 = 0.5972	0.184	–	–
15000 kPa, x2 = 0.6454	0.175	0.148	0.117
15000 kPa, x2 = 0.6926	0.164	–	–
15000 kPa, x2 = 0.7389	0.149	0.127	0.1
15000 kPa, x2 = 0.7845	0.131	–	–
15000 kPa, x2 = 0.8291	0.11	0.0941	0.0743
15000 kPa, x2 = 0.873	–	–	0.0577
15000 kPa, x2 = 0.9161	0.0587	0.0511	0.0403
15000 kPa, x2 = 0.9584	–	0.0259	0.0203
25000 kPa, x2 = 0.1187	0.072	0.0642	0.0506
25000 kPa, x2 = 0.1762	–	0.0901	0.0707
25000 kPa, x2 = 0.2325	0.129	0.112	0.0873
25000 kPa, x2 = 0.3418	0.167	0.143	0.112
25000 kPa, x2 = 0.4469	0.185	0.158	0.124
25000 kPa, x2 = 0.5479	0.187	0.16	0.125
25000 kPa, x2 = 0.6451	0.175	0.149	0.117
25000 kPa, x2 = 0.7388	0.149	0.127	0.0996
25000 kPa, x2 = 0.7843	0.132	–	–
25000 kPa, x2 = 0.829	0.111	0.0933	–
25000 kPa, x2 = 0.8729	–	0.0728	–
25000 kPa, x2 = 0.916	0.0593	0.0502	–
25000 kPa, x2 = 0.9584	–	0.0242	–
